Laboratory results taken from paper PMC5840262, “Design, Synthesis and Evaluation of Branched RRWQWR-Based Peptides as Antibacterial Agents Against Clinically Relevant Gram-Positive and Gram-Negative Pathogens” (Frontiers in Microbiology, 2018).
Values after ≈ are worked out from the molar mass of the structure shown. Where two headings read alike, the source gives them in different places. Bridge positions count the residues as written; N and C are the ends. Square brackets hold non-standard residues; d marks the D form. Ends that are not written are not given here. Peptide text beside a SMILES is read from it. I, II: the chains in the order shown. Ahx = NCCCCCC(=O)O

Columns and labels:
Type in all cases: cell-based
[1] = tested on: Staphylococcus aureus clinical isolate 48,575
Protocol: (§1) For the clinical isolates, we used 20 different isolates from the Public Health Reference Laboratory collection of the Secretaría de Salud del Distrito (SdSD; Bogotá, Colombia). The samples were collected from June to December 2016. For each isolate, the patient parameters (age, gender and location) and the culture site were recorded for epidemiologic monitoring (Table 1). All isolates had been previously tested for antibiotic sensitivity at the Public Health Microbiology Laboratory using either the Phoenix™ system (Gram-positive) or the VITEK 2 system (Gram-negative).
(§2) We screened all five peptides against the ATCC reference strains and the clinical isolates according to Method M7-A7 of the National Committee for Clinical Laboratory Standards (CLSI, [2007]). The MIC50 and MBC values were determined using a broth microdilution and growth inhibition method previously reported by Leon-Calvijo et al. ([2015]), with some modifications (Wiegand et al., [2008]). Briefly, the MIC50 experiments comprised a liquid-inhibition growth assay in a sterile, untreated, 96-well flat-bottom tissue culture plate. The bacteria were cultured overnight n Mueller Hinton agar; three colonies were transferred to 8 mL of Mueller Hilton broth and incubated at 37°C until the mid-exponential phase of growth. The turbidity of the cultures was measured and adjusted spectrophotometrically to a McFarland standard of 0.5, and then diluted to a final concentration of 5 × 10^7 colony forming units (CFU) per well. Stock solutions (2,000 μM) of each test peptide were serially diluted to final concentrations (per well) of 200, 100, 50, 25, 12.5, and 6.25 μM. Each concentration was evaluated in duplicate and each assay was performed in triplicate.
(§3) Wells containing Mueller Hilton broth with bacterial inoculum only served as bacterial-growth controls. Additional controls included Mueller Hilton broth alone (as blank) and Mueller Hilton broth with ciprofloxacin (2 μg/mL; as positive control). The microplate was incubated for 24 h at 37°C, and growth inhibition was measured by monitoring the optical density at 620 nm (OD620). The MIC50 was defined as the peptide concentration at which bacterial growth was inhibited by 50%.
(§4) To determine the MBC, an aliquot from each well of the MIC50 assay was spread onto Mueller Hilton agar. After 18 h at 37°C, the concentration that inhibited bacterial growth was determined. Each of these tests was performed four times. MBC was defined as the lowest concentration of peptide at which the number of bacteria was reduced by 99.9% in vitro (European Committee for Antimicrobial Susceptibility Testing, [2000]).

[2] = tested on: Enterococcus faecium clinical isolate 550
Protocol: as §1, §2, §3, §4

[3] = tested on: Staphylococcus aureus clinical isolate 43,337
Protocol: as §1, §2, §3, §4

[4] = tested on: Pseudomonas aeruginosa clinical isolate 47,661
Protocol: as §1, §2, §3, §4

[5] = tested on: Staphylococcus aureus clinical isolate 48,577
Protocol: as §1, §2, §3, §4

[6] = tested on: Klebsiella pneumoniae clinical isolate 51,048
Protocol: as §1, §2, §3, §4

[7] = tested on: Staphylococcus aureus clinical isolate 43,062
Protocol: as §1, §2, §3, §4

[8] = tested on: Pseudomonas aeruginosa clinical isolate 48,221
Protocol: as §1, §2, §3, §4

[9] = tested on: Pseudomonas aeruginosa clinical isolate 48,220
Protocol: as §1, §2, §3, §4

[10] = tested on: Staphylococcus aureus clinical isolate 52,013
Protocol: as §1, §2, §3, §4

[11] = tested on: Enterococcus faecium clinical isolate 1,461
Protocol: as §1, §2, §3, §4

[12] = tested on: Pseudomonas aeruginosa clinical isolate 48,458
Protocol: as §1, §2, §3, §4

[13] = tested on: Klebsiella pneumoniae clinical isolate 50,424
Protocol: as §1, §2, §3, §4

[14] = tested on: Klebsiella pneumoniae clinical isolate 50,181
Protocol: as §1, §2, §3, §4

[15] = tested on: Klebsiella pneumoniae clinical isolate 51,009
Protocol: as §1, §2, §3, §4

[16] = tested on: Enterococcus faecium clinical isolate 1,462
Protocol: as §1, §2, §3, §4

[17] = tested on: Pseudomonas aeruginosa clinical isolate 48,526
Protocol: as §1, §2, §3, §4

RRWQWR-NH2 [LfcinB (20–25), reference compound]
MIC50 ([1]; S. aureus isolate 48,575, broth microdilution, 24 h 37°C, OD620, 50% growth inhibition): 3.7 µM | MBC ([1]; S. aureus isolate 48,575, plated on agar 18 h 37°C, 99.9% reduction): >100 µM | MIC50 ([2]; E. faecium isolate 550, broth microdilution, 24 h 37°C, OD620, 50% growth inhibition): >100 µM | MBC ([2]; E. faecium isolate 550, plated on agar 18 h 37°C, 99.9% reduction): >100 µM | MIC50 ([3]; S. aureus isolate 43,337, broth microdilution, 24 h 37°C, OD620, 50% growth inhibition): 3.7 µM | MBC ([3]; S. aureus isolate 43,337, plated on agar 18 h 37°C, 99.9% reduction): >100 µM | MIC50 ([4]; P. aeruginosa isolate 47,661, broth microdilution, 24 h 37°C, OD620, 50% growth inhibition): >100 µM | MBC ([4]; P. aeruginosa isolate 47,661, plated on agar 18 h 37°C, 99.9% reduction): >100 µM | MIC50 ([5]; S. aureus isolate 48,577, broth microdilution, 24 h 37°C, OD620, 50% growth inhibition): 3.7 µM | MBC ([5]; S. aureus isolate 48,577, plated on agar 18 h 37°C, 99.9% reduction): >100 µM | MIC50 ([6]; K. pneumoniae isolate 51,048, broth microdilution, 24 h 37°C, OD620, 50% growth inhibition): >100 µM | MBC ([6]; K. pneumoniae isolate 51,048, plated on agar 18 h 37°C, 99.9% reduction): >100 µM | MIC50 ([7]; S. aureus isolate 43,062, broth microdilution, 24 h 37°C, OD620, 50% growth inhibition): 5.1 µM | MBC ([7]; S. aureus isolate 43,062, plated on agar 18 h 37°C, 99.9% reduction): >100 µM | MIC50 ([8]; P. aeruginosa isolate 48,221, broth microdilution, 24 h 37°C, OD620, 50% growth inhibition): >100 µM | MBC ([8]; P. aeruginosa isolate 48,221, plated on agar 18 h 37°C, 99.9% reduction): >100 µM | MIC50 ([9]; P. aeruginosa isolate 48,220, broth microdilution, 24 h 37°C, OD620, 50% growth inhibition): >100 µM | MBC ([9]; P. aeruginosa isolate 48,220, plated on agar 18 h 37°C, 99.9% reduction): >100 µM | MIC50 ([10]; S. aureus isolate 52,013, broth microdilution, 24 h 37°C, OD620, 50% growth inhibition): 5.1 µM | MBC ([10]; S. aureus isolate 52,013, plated on agar 18 h 37°C, 99.9% reduction): >100 µM | MIC50 ([11]; E. faecium isolate 1,461, broth microdilution, 24 h 37°C, OD620, 50% growth inhibition): >100 µM | MBC ([11]; E. faecium isolate 1,461, plated on agar 18 h 37°C, 99.9% reduction): >100 µM | MIC50 ([12]; P. aeruginosa isolate 48,458, broth microdilution, 24 h 37°C, OD620, 50% growth inhibition): >100 µM | MBC ([12]; P. aeruginosa isolate 48,458, plated on agar 18 h 37°C, 99.9% reduction): >100 µM | MIC50 ([13]; K. pneumoniae isolate 50,424, broth microdilution, 24 h 37°C, OD620, 50% growth inhibition): 11.3 µM | MBC ([13]; K. pneumoniae isolate 50,424, plated on agar 18 h 37°C, 99.9% reduction): >100 µM | MIC50 ([14]; K. pneumoniae isolate 50,181, broth microdilution, 24 h 37°C, OD620, 50% growth inhibition): >100 µM | MBC ([14]; K. pneumoniae isolate 50,181, plated on agar 18 h 37°C, 99.9% reduction): >100 µM | MIC50 ([15]; K. pneumoniae isolate 51,009, broth microdilution, 24 h 37°C, OD620, 50% growth inhibition): >100 µM | MBC ([15]; K. pneumoniae isolate 51,009, plated on agar 18 h 37°C, 99.9% reduction): >100 µM | MIC50 ([16]; E. faecium isolate 1,462, broth microdilution, 24 h 37°C, OD620, 50% growth inhibition): >100 µM | MBC ([16]; E. faecium isolate 1,462, plated on agar 18 h 37°C, 99.9% reduction): >100 µM | MIC50 ([17]; P. aeruginosa isolate 48,526, broth microdilution, 24 h 37°C, OD620, 50% growth inhibition): >100 µM | MBC ([17]; P. aeruginosa isolate 48,526, plated on agar 18 h 37°C, 99.9% reduction): >100 µM

N=C(N)NCCC[C@H](NC(=O)[C@H](Cc1c[nH]c2ccccc12)NC(=O)[C@H](CCC(N)=O)NC(=O)[C@H](Cc1c[nH]c2ccccc12)NC(=O)[C@H](CCCNC(=N)N)NC(=O)[C@@H](N)CCCNC(=N)N)C(=O)NCCCC[C@H](NC(=O)[C@H](CCCNC(=N)N)NC(=O)[C@H](Cc1c[nH]c2ccccc12)NC(=O)[C@H](CCC(N)=O)NC(=O)[C@H](Cc1c[nH]c2ccccc12)NC(=O)[C@H](CCCNC(=N)N)NC(=O)[C@@H](N)CCCNC(=N)N)C(=O)NCCCCCC(N)=O [LfcinB (20–25)2] (I: H-RRWQWRK[Ahx]-NH2 / II: H-RRWQWR; amide I:7-II:C; N-terminus assumed)
MBC ([1]; clinical isolate 48,575, 18 h): 25.0 µM (≈ 54.9 µg/mL) | MIC50 ([1]; clinical isolate 48,575, 24 h): 13.4 µM (≈ 29.4 µg/mL) | MBC ([2]; clinical isolate 550, 18 h): >100 µM | MIC50 ([2]; clinical isolate 550, 24 h): >100 µM | MBC ([3]; clinical isolate 43,337, 18 h): 25.0 µM (≈ 54.9 µg/mL) | MIC50 ([3]; clinical isolate 43,337, 24 h): 13.5 µM (≈ 29.7 µg/mL) | MBC ([4]; clinical isolate 47,661, 18 h): >100 µM | MIC50 ([4]; clinical isolate 47,661, 24 h): 13.4 µM (≈ 29.4 µg/mL) | MBC ([5]; clinical isolate 48,577, 18 h): 50.0 µM (≈ 110 µg/mL) | MIC50 ([5]; clinical isolate 48,577, 24 h): 12.9 µM (≈ 28.3 µg/mL) | MBC ([6]; clinical isolate 51,048, 18 h): 100.0 µM (≈ 220 µg/mL) | MIC50 ([6]; clinical isolate 51,048, 24 h): 5.7 µM (≈ 12.5 µg/mL) | MBC ([7]; clinical isolate 43,062, 18 h): 50.0 µM (≈ 110 µg/mL) | MIC50 ([7]; clinical isolate 43,062, 24 h): 13.5 µM (≈ 29.7 µg/mL) | MBC ([8]; clinical isolate 48,221, 18 h): >100 µM | MIC50 ([8]; clinical isolate 48,221, 24 h): 64.2 µM (≈ 141 µg/mL) | MBC ([9]; clinical isolate 48,220, 18 h): 50.0 µM (≈ 110 µg/mL) | MIC50 ([9]; clinical isolate 48,220, 24 h): 50.0 µM (≈ 110 µg/mL) | MBC ([10]; clinical isolate 52,013, 18 h): 25.0 µM (≈ 54.9 µg/mL) | MIC50 ([10]; clinical isolate 52,013, 24 h): 12.6 µM (≈ 27.7 µg/mL) | MBC ([11]; clinical isolate 1,461, 18 h): >100 µM | MIC50 ([11]; clinical isolate 1,461, 24 h): >100 µM | MBC ([12]; clinical isolate 48,458, 18 h): >100 µM | MIC50 ([12]; clinical isolate 48,458, 24 h): 75.0 µM (≈ 165 µg/mL) | MBC ([13]; clinical isolate 50,424, 18 h): >100 µM | MIC50 ([13]; clinical isolate 50,424, 24 h): 5.8 µM (≈ 12.7 µg/mL) | MBC ([14]; clinical isolate 50,181, 18 h): 100.0 µM (≈ 220 µg/mL) | MIC50 ([14]; clinical isolate 50,181, 24 h): 6.6 µM (≈ 14.5 µg/mL) | MBC ([15]; clinical isolate 51,009, 18 h): 25.0 µM (≈ 54.9 µg/mL) | MIC50 ([15]; clinical isolate 51,009, 24 h): 5.6 µM (≈ 12.3 µg/mL) | MBC ([16]; clinical isolate 1,462, 18 h): >100 µM | MIC50 ([16]; clinical isolate 1,462, 24 h): 49.8 µM (≈ 109 µg/mL) | MBC ([17]; clinical isolate 48,526, 18 h): >100 µM | MIC50 ([17]; clinical isolate 48,526, 24 h): 36.3 µM (≈ 79.7 µg/mL)
